Results from patent publication US11041010B2, “Hybrid peptidomimetics for use in neuropathic pain” (Uniwersytet Warszawski, priority 2017, dated 2021).
Positions of bridges follow the written chain, without caps; N, C: chain ends. Non-standard residues stand in square brackets, D forms with d. No end group written: not given here. d2Nal = N[C@H](Cc1ccc2ccccc2c1)C(=O)O; Nle = CCCC[C@H](N)C(=O)O; Ahx = NCCCCCC(=O)O; βAla = NCCC(=O)O

Tests used:
[1] = system: CCI mice (mouse model of neuropathic pain); assay: Cold plate test (hyperalgesia) in mice with sciatic nerve injury (CCI), intrathecal administration; type: in vivo; details: mice in the neuropathic pain model, cold plate 2° C., range in brackets
Procedure: (§1) Albino Swiss mice were subjected to a loose unilateral ligation of the right sciatic nerve (a chronic constriction injury, CCI) according to the model developed by Bennett and Xie, Pain 33, 87-107, […]. […] The tests permitted to determine the analgesic efficiency of the novel compounds in the model of neuropathic pain. In the control mice (due to the absence of hypersensitivity, which characterizes neuropathic pain) at the same time points, a test of tail flick was conducted to determine pain threshold in the acute pain after intrathecal administration of the hybrid peptidomimetics.
(§2) The results were presented for doses in micrograms, at which a half (50%) of the maximum effect (ED50) is reached. Calculation of the ED50 value requires clear dose-dependent effects.

[2] = system: healthy mice (control mice); assay: Tail flick test, acute pain threshold in control mice after intrathecal administration; type: in vivo, mouse; details: for analgesic activity in control mice: healthy mice, FIGS. 1-7 (A)
Procedure: as §1, §2

[3] = system: healthy rats (control rats); assay: Acute pain threshold in healthy (control) rats after intrathecal administration; type: in vivo; details: 0.1 μg/5 μl/rat, FIGS. 10-13 (A)
[4] = system: CCI rats (rat model of neuropathic pain); assay: Rat model of neuropathic pain (CCI), von Frey and cold plate tests after intrathecal administration; type: in vivo; details: 0.1 μg/5 μl/rat, FIGS. 10-13 (B, C)
Procedure: Wistar rats were subjected to cannulation for intrathecal administration by a method of Yaksh, T. L., Rudy, T. A., described in Physiol. Behay. 17, 1031-1036, 1976, and seven days after this procedure, a loose unilateral ligation of the right sciatic nerve (a chronic constriction injury, CCI) according to the model developed by Bennett and Xie (1988). After seven days from the CCI procedure, behavioral tests were conducted: the von Frey test and cold plate test to measure hypersensitivity to tactile and thermal stimuli, respectively. Hypersensitivity developed after injury of the nerve to two types of stimuli is a symptom of neuropathy.

[5] = system: CCI mice (mouse model of neuropathic pain); assay: Mouse model of neuropathic pain (CCI), von Frey and cold plate tests after intravenous administration; type: in vivo; details: CCI mice, 15, 30 and 120 min, FIGS. 8-9
Procedure: In the second stage of the pharmacological studies, the effect of the peripheral, intravenous administration of the hybrid peptidomimetics according to the invention (UW3, UW5) on the sensitivity to a mechanical stimulus (A) (von Frey test) and thermal stimulus (B) (cold plate test) threshold compared to a control group receiving water for injection was tested on mice in the neuropathy model (FIGS. 8 and 9). The studies were conducted at days 7-14 from the CCI procedure on mice at 15, 30 and 120 min after intravenous administration of the hybrid peptidomimetics UW3 and UW5 in the selected doses.

[6] = system: CCI mice (mouse model of neuropathic pain); assay: Mouse model of neuropathic pain (CCI), von Frey and cold plate tests taken together, intrathecal administration; type: in vivo; details: for analgesic activity in neuropathic pain (mice): CCI mice, von Frey and cold plate tests, FIGS. 1-7 (B, C); for analgesic activity of the reference compounds (mice, first stage): reason why no ED50 was calculated
Procedure: as §1

[7] = system: CCI mice (mouse model of neuropathic pain); assay: Von Frey test (allodynia) in mice with sciatic nerve injury (CCI), intrathecal administration; type: in vivo; details: mice in the neuropathic pain model, range in brackets
Procedure: as §1, §2

Substance | Cold plate (hyperalgesia) ED50 [1] | analgesic activity in control mice [2] | analgesic activity in healthy (control) rats [3] | analgesic activity in the rat model of neuropathic pain [4] | analgesic efficiency after peripheral, intravenous administration [5] | analgesic activity in neuropathic pain (mice) [6] | Von Frey test (allodynia) ED50 [7] | Control mice Tail flick test ED50 ([2]; control mice, dose giving 50% of maximum effect, range in brackets) | analgesic activity of the reference compounds (mice, first stage) [6]
Y[dA]GF[Ahx][Nle]DH[d2Nal]RWK-NH2 (lactam 7-12) [UW3] | 0.008 (0.005-0.01) μg | limited analgesic efficiency | very weak activity | reaches maximum values | high analgesic efficiency | higher analgesic efficiency | 0.0004 (0.0001-0.002) μg | – | –
Tyr-D-Ala-Gly-Phe-NH2 [UW1, reference compound] | 9.3 (2.7-32)^ μg | show activity | weak activity | weak activity | – | weakened in both or at least one hypersensitivity determining test | 0.16 (0.1-0.25) μg | 0.03 (0.02-0.05) μg | –
Y[dA]GF[βAla][Nle]DH[d2Nal]RWK-NH2 (lactam 7-12) [UW4] | – | – | – | – | – | – | – | – | very weak and dose dependency-deprived analgesic activity
Y[dA]GF[Ahx][Ahx][Nle]DH[d2Nal]RWK-NH2 (lactam 8-13) [UW5] | 0.2 (0.008-6.5) μg | limited analgesic efficiency | very weak activity | reaches maximum values | high analgesic efficiency | higher analgesic efficiency | 0.02 (0.00003-15) μg | – | –
Tyr-D-Ala-Gly-Phe-4AMB-Nle-cyclo[Asp-His-D-Nal(2′)-Arg-Trp-Lys]-NH2 [UW6] | – | – | – | – | – | – | – | – | very weak and dose dependency-deprived analgesic activity
Y[dA]GF[dA][Nle]DH[d2Nal]RWK-NH2 (lactam 7-12) [UW2] | – | – | – | – | – | – | – | – | very weak and dose dependency-deprived analgesic activity
